One block for each molecule: values may come before it.
Assay: solvent given as SMILES

emission maximum (in CC1CCCO1): 413 nm
Structure (SMILES): O=S1(=O)c2ccc(-c3ccc4c(c3)c3ccccc3n4-c3ccccc3)cc2C2(c3cc(-c4ccc5c(c4)c4ccccc4n5-c4ccccc4)ccc31)c1cc(-c3ccc4c(c3)c3ccccc3n4-c3ccccc3)ccc1S(=O)(=O)c1ccc(-c3ccc4c(c3)c3ccccc3n4-c3ccccc3)cc12

emission maximum (in ClC(Cl)Cl): 518 nm
Structure (SMILES): N#Cc1ccc(-c2cc(-c3ccc(N4CCCC4)cc3)nc(-c3ccccc3)n2)cc1

emission maximum (in ClCCl): 545 nm
Structure (SMILES): CCCCCCCCCCCCN1C(=O)c2c(c3ccc4cc(-c5cccs5)c(OC)cc4c3c3c2ccc2cc(-c4cccs4)c(OC)cc23)C1=O

emission maximum (in CC#N): 465 nm
Structure (SMILES): COc1ccc(C#Cc2ccc3ccc(=O)oc3c2)cc1

emission maximum (in C1CCOC1): 382.5 nm
Structure (SMILES): CCCCCCCCn1cc(-n2c(-c3cc(-c4nc5ccc(C)cc5n4-c4cn(CCCCCCCC)nn4)cc(-c4nc5ccc(C)cc5n4-c4cn(CCCCCCCC)nn4)c3)nc3ccc(C)cc32)nn1

emission maximum (in ClC(Cl)Cl): 499 nm
Structure (SMILES): F[B-]1(F)OC(c2ccc(N3CCCCC3)cc2)=Cc2cccc[n+]21

emission maximum (in CS(C)=O): 341 nm
Structure (SMILES): COc1ccc(NC(=O)C(C(=O)Nc2ccc(OC)cc2)C(c2cc(F)ccc2O)c2c[nH]c3ccc(OC)cc23)cc1 (stereo unspecified)

emission maximum (in ClC(Cl)Cl): 570 nm
Structure (SMILES): N#Cc1nc(N(Cc2ccccc2F)Cc2ccccc2F)c(C#N)nc1N(Cc1ccccc1F)Cc1ccccc1F

emission maximum (in ClC(Cl)Cl): 615 nm
emission maximum (in ClCCl): 607 nm
Structure (SMILES): CCCCN1C(=O)c2cc(Oc3ccc(C(C)(C)C)cc3)c3c4c(Oc5ccc(C(C)(C)C)cc5)cc5c6c(cc(Oc7ccc(C(C)(C)C)cc7)c(c7c(Oc8ccc(C(C)(C)C)cc8)cc(c2c37)C1=O)c64)C(=O)N(CCCC)C5=O

emission maximum (in ClC(Cl)Cl): 634 nm
Structure (SMILES): N#CC(C#N)=Cc1ccc(-c2ccc(N(c3ccccc3)c3ccccc3)cc2)s1

emission maximum (in CC#N): 365 nm
Structure (SMILES): c1ccc(COc2cc(C[n+]3ccc(-c4cc[n+](Cc5cc(OCc6ccccc6)cc(OCc6ccccc6)c5)cc4)cc3)cc(OCc3ccccc3)c2)cc1

emission maximum (in CC1CCCCC1): 431 nm
Structure (SMILES): c1ccc2c(c1)Sc1ccccc1S2

emission maximum (in CC#N): 405 nm
Structure (SMILES): CN(C)c1ccc(-n2c(-c3ccncc3)nc3nccnc32)cc1

emission maximum (in CC#N): 337 nm
emission maximum (in CCCCCC): 326 nm
Structure (SMILES): CCN(CC)c1ccc(-n2cccc2)cc1

emission maximum (in C1CCOC1): 390 nm
Structure (SMILES): N#Cc1ccc(C=C(c2ccccc2)c2ccccc2)cc1

emission maximum (in ClCCl): 392 nm
Structure (SMILES): C(#Cc1ccc2c(c1)c1cc(C#Cc3ccccc3)ccc1n2-c1cc2ccccc2c2ccccc12)c1ccccc1

emission maximum (in C1CCOC1): 420 nm
Structure (SMILES): c1ccc(-c2cc(-c3ccccc3)cc(-c3ccc4c(c3)C3(c5cc(-c6cc(-c7ccccc7)cc(-c7ccccc7)c6)ccc5-4)c4ccccc4-c4c3c3c5ccccc5ccc3c3ccccc43)c2)cc1

emission maximum (in ClCCl): 666 nm
Structure (SMILES): CCCCCCCCOc1ccc(C#Cc2c3cc4ccccc4cc3c(C#C[Si](C(C)C)(C(C)C)C(C)C)c3cc4ccccc4cc23)cc1

emission maximum (in C1CCCCC1): 485 nm
emission maximum (in C1COCCO1): 505 nm
emission maximum (in CC#N): 525 nm
emission maximum (in CN(C)C=O): 540 nm
emission maximum (in ClC(Cl)Cl): 510 nm
Structure (SMILES): N#Cc1c2nc3ccccn3c2nc2nc3ccccn3c12

emission maximum (in ClCCl): 427 nm
Structure (SMILES): CC1CCC(=CS/C=C/c2ccc(/C=C/SC=C3CCC(C)CC3)cc2)CC1 (stereo unspecified)

emission maximum (in ClC(Cl)Cl): 480 nm
Structure (SMILES): FC(F)(F)c1ccc(-c2nc(-c3ccc(C(F)(F)F)cc3)n3ccccc23)cc1

emission maximum (in C1CCOC1): 494 nm
Structure (SMILES): C[P+](c1c2ccccc2cc2ccccc12)(c1c2ccccc2cc2ccccc12)c1c2ccccc2cc2ccccc12

emission maximum (in CC#N): 418 nm
emission maximum (in CCCCCC): 403 nm
emission maximum (in CO): 430 nm
emission maximum (in CS(C)=O): 422 nm
emission maximum (in ClC(Cl)Cl): 410 nm
Structure (SMILES): CCN(CC)c1ccc(/C=N/Nc2ccc(C#N)cc2)c(O)c1

emission maximum (in ClCCl): 406 nm
Structure (SMILES): CCOC(=O)c1c(-c2c(Cl)c3ccccc3oc2=O)nn(-c2ccccc2)c1C(=O)OCC

emission maximum (in CC#N): 417 nm
emission maximum (in CC(C)O): 421 nm
emission maximum (in CCO): 423 nm
emission maximum (in CO): 425 nm
emission maximum (in ClC(Cl)Cl): 417 nm
emission maximum (in ClCCl): 417 nm
Structure (SMILES): Cc1cccc2cc3c(=O)n(C)c(=O)n(C)c3nc12

emission maximum (in CCCCCCC): 610 nm
Structure (SMILES): c1ccc2c3c(ccc2c1)-c1cccc2cc4ccccc4c-3c12

More lines, now with the values behind:

Structure (SMILES): CCCCCCN(CCCCCC)c1ccc(C#Cc2ccc(/C=C/c3ccc(-c4ccc(/C=C/c5ccc(C#Cc6ccc(N(CCCCCC)CCCCCC)cc6)cc5)cc4)cc3)cc2)cc1
emission maximum (in Cc1ccccc1): 452 nm

Structure (SMILES): Nc1ccc(-c2ccc3c(c2)C(=O)c2ccccc2C3=O)cc1
emission maximum (in CCCCCC): 512 nm
emission maximum (in CCOCC): 643 nm
emission maximum (in Cc1ccccc1): 599 nm
emission maximum (in ClC(Cl)(Cl)Cl): 562 nm
emission maximum (in ClCCl): 695 nm

Structure (SMILES): CCCCOC(=O)c1cc(Cl)c2c3c(Cl)cc4c5c(cc(Cl)c(c6c(Oc7ccc(C(=O)OC)cc7)cc(C(=O)OCCCC)c1c26)c53)C(=O)N(c1c(C(C)C)cccc1C(C)C)C4=O
emission maximum (in Cc1ccccc1): 560 nm

Structure (SMILES): CCCCCCCCCCCCN1C(=O)c2ccc3c4ccc5c6c(ccc(c7ccc(c2c37)C1=O)c64)C(=O)NC5=O
emission maximum (in CN(C)C=O): 535 nm

Structure (SMILES): CCC1=C(C)C2=Cc3c4ccccc4c4n3[B-](c3ccc(OC)cc3)(Oc3ccccc3-4)[N+]2=C1C (stereo unspecified)
emission maximum (in CC#N): 634 nm
emission maximum (in CCCCCC): 635 nm
emission maximum (in Cc1ccccc1): 641 nm
emission maximum (in ClCCl): 639 nm

Structure (SMILES): CN(C)c1ccc(/C=C/c2cnc(/C=C/c3ccc(C#N)cc3)o2)cc1
emission maximum (in ClCCl): 640 nm

Structure (SMILES): COc1ccc(-n2c3ccccc3c3cc(/C=C/C(=C(C#N)C#N)c4ccccc4)ccc32)cc1
emission maximum (in C1CCOC1): 560 nm
emission maximum (in CC#N): 594 nm
emission maximum (in CC(C)=O): 582 nm
emission maximum (in CCOC(C)=O): 550 nm
emission maximum (in CO): 597 nm
emission maximum (in CS(C)=O): 601 nm
emission maximum (in Cc1ccccc1): 526 nm
emission maximum (in ClC(Cl)Cl): 554 nm

Structure (SMILES): c1ccc(Cn2c3sccc3c3c4nsnc4c4c5ccsc5n(Cc5ccccc5)c4c32)cc1
emission maximum (in Cc1ccccc1): 508 nm
emission maximum (in ClCCl): 541 nm

Structure (SMILES): Cc1ccsc1-c1ccc(-c2ccc(-c3sccc3C)s2)s1
emission maximum (in CCCCCCCCCCCCCC): 473 nm

Structure (SMILES): c1ccc(-c2nc(-c3ccc(N4c5ccccc5C(c5ccccc5)(c5ccccc5)c5ccccc54)cc3)cc(-c3ccccn3)n2)cc1
emission maximum (in Cc1ccccc1): 460 nm
emission maximum (in O=P(c1ccccc1)(c1ccccc1)c1ccccc1Oc1ccccc1P(=O)(c1ccccc1)c1ccccc1): 468 nm

Structure (SMILES): CN(C)c1ccc2cc(C(/C=C/c3cn(C)c4ccccc34)=C(C#N)C#N)c(=O)oc2c1
emission maximum (in C1CCOC1): 584 nm
emission maximum (in C1COCCO1): 568 nm
emission maximum (in CN(C)C=O): 539 nm
emission maximum (in CS(C)=O): 555 nm
emission maximum (in ClCCl): 583 nm

Structure (SMILES): Nc1ccc(/C=C2\OC(=O)c3ccccc32)cc1
emission maximum (in CC#N): 547.95 nm
emission maximum (in CC(C)=O): 390.02 nm
emission maximum (in CC(C)CO): 547.65 nm
emission maximum (in CC(C)O): 548.25 nm
emission maximum (in CCCO): 549.75 nm
emission maximum (in CCO): 552.49 nm
emission maximum (in CCOC(C)=O): 503.52 nm
emission maximum (in CCOCC): 485.91 nm
emission maximum (in CO): 552.49 nm

Structure (SMILES): O=S(=O)(c1ccc(N(c2ccccc2)c2ccccc2)cc1)c1ccc(S(=O)(=O)c2ccc(N(c3ccccc3)c3ccccc3)cc2)cc1
emission maximum (in Cc1ccccc1): 451 nm

Structure (SMILES): Cc1ccccc1N(c1ccc(C(C)(C)C)cc1)c1ccc2ccc3c(N(c4ccc(C(C)(C)C)cc4)c4ccccc4C)ccc4ccc1c2c43
emission maximum (in Cc1ccccc1): 462 nm

Structure (SMILES): C(=C\c1ccc(-c2cccc3ccccc23)s1)/c1cccs1
emission maximum (in ClCCl): 453 nm

Structure (SMILES): O=[N+]([O-])c1ccc(/C2=C3N=C(C(c4ccccc4)=C/3c3ccccc3)/C(c3ccc([N+](=O)[O-])cc3)=c3\[nH]/c(c(-c4ccccc4)c3-c3ccccc3)=C(/c3ccc([N+](=O)[O-])cc3)C3=N/C(=C(/c4ccc([N+](=O)[O-])cc4)c4[nH]c2c(-c2ccccc2)c4-c2ccccc2)C(c2ccccc2)=C3c2ccccc2)cc1
emission maximum (in ClCCl): 745 nm

Structure (SMILES): COc1ccc2c(c1)c1cc(OC)ccc1n2-c1ccc(S(=O)(=O)c2ccc(-n3c4ccc(OC)cc4c4cc(OC)ccc43)cc2)cc1
emission maximum (in Cc1ccccc1): 445 nm

Structure (SMILES): NCCc1c[nH]c2ccc(O)cc12
emission maximum (in CC#N): 332 nm
emission maximum (in CC(C)O): 335 nm
emission maximum (in CO): 334 nm
emission maximum (in O): 337 nm

Structure (SMILES): O=C1c2ccccc2S(=O)(=O)c2ccc(-n3c4ccccc4c4ccccc43)cc21
emission maximum (in C1CCOC1): 576 nm
emission maximum (in CCCCCC): 485 nm
emission maximum (in Cc1ccccc1): 535.5 nm
emission maximum (in ClC(Cl)Cl): 595.5 nm
emission maximum (in ClCCl): 609.5 nm

Structure (SMILES): Cc1ccc(-n2c3ccccc3c3cc(C=C(C#N)C#N)ccc32)cc1
emission maximum (in C1CCOC1): 454 nm
emission maximum (in CC#N): 516 nm
emission maximum (in CC(C)=O): 502 nm
emission maximum (in CCOC(C)=O): 474 nm
emission maximum (in CO): 519 nm
emission maximum (in CS(C)=O): 524 nm
emission maximum (in Cc1ccccc1): 454 nm
emission maximum (in ClC(Cl)Cl): 478 nm

Structure (SMILES): Oc1ccccc1/C=N/N=C/c1ccccc1O
emission maximum (in CC#N): 588.24 nm
emission maximum (in CC(C)CCCC(C)CCCC(C)CCCCC(C)CCCC(C)CCCC(C)C): 583.09 nm
emission maximum (in CCCCCC): 578.03 nm
emission maximum (in CCCCCCCCC): 581.4 nm
emission maximum (in CCCCCCCCCCCCCCCC): 581.4 nm
emission maximum (in CCCCl): 584.8 nm
emission maximum (in CCN(CC)CC): 576.37 nm
emission maximum (in CCO): 579.71 nm
emission maximum (in CCOCC): 588.24 nm
emission maximum (in CO): 573.07 nm
emission maximum (in OC(C(F)(F)F)C(F)(F)F): 571.43 nm
emission maximum (in OCC(F)(F)F): 573.07 nm
emission maximum (in OCCO): 584.8 nm

Structure (SMILES): Cc1cccc2c3ccccc3n(-c3ccc(-c4c(-c5ccccc5)c(C#N)c(C#N)c(-c5ccccc5)c4-c4ccc(-n5c6ccccc6c6cccc(C)c65)cc4)cc3)c12
emission maximum (in Cc1ccccc1): 440 nm
emission maximum (in O=P(c1ccccc1)(c1ccccc1)c1ccc2oc3ccc(P(=O)(c4ccccc4)c4ccccc4)cc3c2c1): 450 nm

Structure (SMILES): c1ccc(-c2ccc(-c3ccc4c(c3)CCO4)cc2)cc1
emission maximum (in C1CCCCC1): 377 nm

Structure (SMILES): c1ccc(-c2nnc(-c3ccccc3)n2-c2ccc(N3c4ccccc4N(c4ccccc4)c4ccccc43)cc2)cc1
emission maximum (in Cc1ccccc1): 495 nm
emission maximum (in c1cc(-n2c3ccccc3c3ccccc32)cc(-n2c3ccccc3c3ccccc32)c1): 474 nm

— the Deep4Chem optical property database
